# Measured values as given in patent US11299503B2, “Compound, coating composition comprising the same, organic light emitting device using the same and method for manufacturing the same” (LG Chem, Ltd., priority 2018, dated 2022).
# Assay: Solubility in toluene, precipitate check by tyndall effect
# Assay type: physicochemical
# Conditions: toluene 100 ml, left 30 minutes at room temperature (25° C.), dissolved amount measured
# Description: In addition, Compound BD12, Compound BD24, Compound BD30, Compound BD38 and Compound C used in Example 1 to Example 4 and Comparative Example 1 were each introduced to a solvent (toluene 100 ml), and then left unattended for 30 minutes at room temperature (25° C.). After that, laser was passed through the solution to determine whether precipitates were formed through a […] effect, and the dissolved amount was measured.
row,Compound,Solubility [wt %]
1,c1ccc([Si](c2ccccc2)(c2ccccc2)c2cccc(-c3ccccc3N(c3cccc([Si](c4ccccc4)(c4ccccc4)c4ccccc4)c3)c3cc4c5ccccc5c(N(c5cccc([Si](c6ccccc6)(c6ccccc6)c6ccccc6)c5)c5ccccc5-c5cccc([Si](c6ccccc6)(c6ccccc6)c6ccccc6)c5)cc4c4ccccc34)c2)cc1 [BD12],10
2,c1ccc([Si](c2ccccc2)(c2ccccc2)c2cccc(-c3ccccc3N(c3ccc(-c4cc5c6ccccc6c(-c6ccc(N(c7cccc([Si](c8ccccc8)(c8ccccc8)c8ccccc8)c7)c7ccccc7-c7cccc([Si](c8ccccc8)(c8ccccc8)c8ccccc8)c7)cc6)cc5c5ccccc45)cc3)c3cccc([Si](c4ccccc4)(c4ccccc4)c4ccccc4)c3)c2)cc1 [BD24],10
3,CC(C)c1ccc([Si](c2ccc(C(C)C)cc2)(c2ccc(C(C)C)cc2)c2ccc(N(c3cccc(-c4cccc([Si](c5ccc(C(C)C)cc5)(c5ccc(C(C)C)cc5)c5ccc(C(C)C)cc5)c4)c3)c3cc4c5ccccc5c(N(c5ccc([Si](c6ccc(C(C)C)cc6)(c6ccc(C(C)C)cc6)c6ccc(C(C)C)cc6)cc5)c5cccc(-c6cccc([Si](c7ccc(C(C)C)cc7)(c7ccc(C(C)C)cc7)c7ccc(C(C)C)cc7)c6)c5)cc4c4ccccc34)cc2)cc1 [BD30],15
4,CC(C)c1ccc([Si](c2ccc(C(C)C)cc2)(c2ccc(C(C)C)cc2)c2ccc(N(c3ccc(-c4cc5c6ccccc6c(-c6ccc(N(c7ccc([Si](c8ccc(C(C)C)cc8)(c8ccc(C(C)C)cc8)c8ccc(C(C)C)cc8)cc7)c7cccc(-c8cccc([Si](c9ccc(C(C)C)cc9)(c9ccc(C(C)C)cc9)c9ccc(C(C)C)cc9)c8)c7)cc6)cc5c5ccccc45)cc3)c3cccc(-c4cccc([Si](c5ccc(C(C)C)cc5)(c5ccc(C(C)C)cc5)c5ccc(C(C)C)cc5)c4)c3)cc2)cc1 [BD38],15
5,"c1ccc(-c2ccc(N(c3ccccc3)c3cc4c5ccccc5c(N(c5ccccc5)c5ccc(-c6ccccc6)cc5)cc4c4ccccc34)cc2)cc1 [Compound C, reference compound]",0.1
